Measurements published in patent publication US11117856B2, “Polyamine compounds targeting the efflux pumps of multi-drug resistant bacterial pathogens and methods of using the same” (UNIVERSITY OF SOUTH FLORIDA, priority 2016, dated 2021).
Where “and” joins values, the source holds several entries; their conditions need not be identical. Identical values can stand only once.

Key:
[1] = tested on: tetracycline resistant strain of P. aeruginosa; assay: Checkerboard potentiation assay with tetracycline; format: cell-based; settings: for FP^#c (Fold Potentiation, EC90): Table 1, tetracycline EC90; for FP* (Fold Potentiation, EC50): EC50 tetracycline with no TPI/with TPI; for FP* (Fold Potentiation, EC50) / FP^# (Fold Potentiation, EC90): 25 μg mL^−1 TPI; for FP^# (Fold Potentiation, EC90): EC90 tetracycline with no TPI/with TPI; for FP*^c (Fold Potentiation, EC50): Table 1, tetracycline EC50; for TPI (inhibitory concentration of the polyamines alone to produce EC values): polyamine alone, no tetracycline, 25 μg mL^−1 highest concentration tested
Procedure: (§1) The bacterial strains used in this study are multi-drug resistant clinical isolates that have previously been described (TABLE 2) (Fleeman, et al. J. Med. Chem. 2015, 58, 3340-3355). Organisms were grown in tryptic soy broth (TSB) for overnight cultures, and cation adjusted Mueller Hinton broth (CA-MH II) was used for experimental procedures. All incubations were performed at 37° C.
(§2) Scaffold ranking library samples and individual polyamines were screened using checkerboard inhibitory assays to assess the potentiation of tetracycline and chloramphenicol. The test utilized a 96-well plate microtiter assay where the concentration of the scaffold or individual polyamine was decreased from 25 μg mL^−1 to 0.8 μg mL^−1 (average molarity of 65 μM to 4 μM) along the rows, and the concentration of tetracycline or chloramphenicol was increased from 0.4 μM to 100 μM across the columns. Plates were incubated statically at 37° C. for 20 hours, and the optical density (OD600) was determined using a Synergy 2 plate reader (Biotek). Potentiation modeling (detailed below) was performed to determine fold change in the 50% and 90% effective concentration of tetracycline or chloramphenicol.
Potentiation was quantified using a mathematical model developed by our group to assess the ability of library samples and individual compounds to effectively enhance the activity of tetracycline or chloramphenicol (Hoel, D. G. Statistical Aspects of Chemical Mixtures. Methods for assessing the effects of mixtures of chemicals. 1987, New York). […] In this way, only libraries and compounds that potentiated tetracycline or chloramphenicol activity were pursued. The model is based on the following equation for modeling the percentage activity of a mixture of two agents with independent action (Hoel, et al. Statistical Aspects of Chemical Mixtures. Methods for assessing the effects of mixtures of chemicals. 1987, New York): %Antibiotic & Comp(x1,x2)=%Antibiotic(x1)+%Comp(x2)−%Antibiotic(x1)·%Comp(x2)
Here, x1 and x2 are the concentrations of antibiotic (tetracycline or chloramphenicol) and library/compound (Comp) tested, respectively. This equation can be rearranged to model the effective percent activity (EC) of the antibiotic alone, after accounting for compound activity:
[formula] Thus, the model-adjusted checkerboards show the antibiotic activity post-potentiation, and from that one can determine the true change in MIC.

[2] = tested on: P. aeruginosa biofilm; assay: Pre-formed biofilm viability assessment with tetracycline; format: cell-based; settings: for biofilm cells recovered, EPI alone: 25 μg mL^−1 (MPC), no tetracycline;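 as to biofilm recovery, combination treatment: percent recovery versus no treatment controls after 20 Hours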
Procedure: (§3) Lead agents were screened for bactericidal activity as described previously (Van Horn, et al. J. Med. Chem. 2014, 57, 3075-3093; […], et al. J. Med. Chem. 2015, 58, 3340-3355), with the following modifications. […] Biofilm experiments were performed similar to those described previously ([…], et al. J. Med. Chem. 2015, 58, 3340-3355; von Salm, et al. Org. Lett. 2016, 18, 2596-2599), with the following modifications.

[3] = tested on: Hek293T cells; assay: MTT cytotoxicity assay; format: cell-based, human; settings: 25 μg mL^−1, 48 hours
Procedure: (§4) To assess toxicity of polyamine compounds we used HepG2 human liver carcinoma cells and Hek293T human embryonic kidney epithelial cells. […] J. Med. Chem. 2015, 58, 3340-3355). […] Cells were then incubated for 48 hours at 37° C. with 5% CO2. Following this, viability was assessed by the addition of MTT and measuring the OD570 in a Biotek plate reader. Percent recovery was determined compared to no drug controls.

[4] = tested on: P. aeruginosa; assay: Bactericidal assessment with tetracycline; format: cell-based
Procedure: as §3

[5] = tested on: HepG2 cells; assay: MTT cytotoxicity assay; format: cell-based, human; settings: 25 μg mL^−1 (highest concentration tested), 48 hours
Procedure: as §4

[6] = tested on: P. aeruginosa; assay: Checkerboard potentiation assay with chloramphenicol; format: cell-based; settings: increasing EPI concentration, dose response
Procedure: as §1
as §2, with “Potentiation modeling (detailed below) was performed to determine fold change in the 50% and 90% effective concentration of tetracycline or chloramphenicol.” left out
Potentiation was quantified using a mathematical model developed by our group to assess the ability of library samples and individual compounds to effectively enhance the activity of tetracycline or chloramphenicol (Hoel, D. G. Statistical Aspects of Chemical Mixtures. Methods for assessing the effects of mixtures of chemicals. 1987, New York). […]

[7] = tested on: P. aeruginosa cells; assay: Bacterial membrane depolarization (DiSC3 dye); format: cell-based; settings: 25 μg mL^−1
Procedure: To determine the level of membrane depolarization by polyamine compounds a 3,3′-dipropylthiadicarbocyanine Iodide (DiSC3) fluorescence dye was used. Exponentially growing cultures were prepared as described above, before being harvested by centrifugation. Cells were next washed in buffer A (5 mM HEPES pH 7.2, 5 mM glucose) and resuspended to an OD600 of 0.2 in the same buffer containing 100 mM KCl and 2 μM DiSC3. Samples were allowed to equilibrate for 15 minutes at room temperature to ensure uptake and quenching of the dye in bacterial membranes. Cells were aliquoted into 96-well plates and polyamines were added alongside the known efflux inhibitor PAN (all at 25 μg mL^−1). Nisin (25 μg mL^−1) was used as a positive control to display depolarization effects. A Biotek plate reader was used to monitor fluorescence of wells, with a 622 nm excitation and 670 nm emission. For graphical representation, the maximum relative fluorescence at 2 minutes was used for comparison of lead agents to controls.

[8] = 25 μM tetracycline + MPC of EPI
[9] = 50 μM tetracycline + MPC of EPI
[10] = 12 μM tetracycline + MPC of EPI

FP^#c (Fold Potentiation, EC90) [1] | FP* (Fold Potentiation, EC50) [1] | FP^# (Fold Potentiation, EC90) [1] | FP*^c (Fold Potentiation, EC50) [1] | Molecule | biofilm recovery, combination treatment [2, 8] | biofilm cells recovered, EPI alone [2] | biofilm recovery, combination treatment [2, 9] | percent recovery of Hek293T cells compared to solvent only controls [3] | TPI (inhibitory concentration of the polyamines alone to produce EC values) [1] | percent recovery, combination treatment [4, 10] | percent recovery, combination treatment [4, 9] | HepG2 cell viability / recovery [5] | change in DiSC3 fluorescence (membrane depolarization) [7] | further results
8.3 fold | 5 fold | 7.5 fold | 5 fold and 5.0 fold | CNCCCC[C@@H](CN)NC[C@H](Cc1ccccc1)NCCc1ccccc1 [TPI 247, (S)—N6-methyl-N2—((S)-2-(phenethylamino)-3-phenylpropyl)hexane-1,2,6-triamine] | 0.6% | 99.99% | 0.2% | 84% | >25 µg/mL | 2.9% | 0.04% | – | – | –
7.8 fold | 7 fold | 7.8 fold | 7.0 fold | NCC[C@@H](CN)NC[C@H](Cc1ccccc1)NCCc1ccccc1 [TPI 250, (S)—N^2—((S)-2-(phenethylamino)-3-phenylpropyl)butane-1,2,4-triamine] | 1% | 99.99% | 0.5% | – | >25 µg/mL | 2.2% | 0.01% | 80% | – | biofilm recovery, combination treatment [2, 10]: 21%; improvement of tetracycline alone biofilm eradication [2, 10]: 67%
5.8 fold | 6.8 fold | 5.8 fold | 6.8 fold | CNCCCC[C@H](CN)NC[C@H](Cc1ccccc1)NCCc1ccccc1 [TPI 266, (R)—N^6-methyl-N^2—((S)-2-(phenethylamino)-3-phenylpropyl)hexane-1,2,6-triamine] | 1% | 92% | 0.6% | 72% | >25 µg/mL | 0.76% | 0.01% | – | – | potentiation of chloramphenicol EC90 [6]: highest potentiation values
8.5 fold | 8.2 fold | 8.5 fold | 8.2 fold | NCCC[C@H](CN)NC[C@H](Cc1ccccc1)NCCc1ccccc1 [TPI 271, (R)—N^2—((S)-2-(phenethylamino)-3-phenylpropyl)pentane-1,2,5-triamine] | 0.5% | 99.99% | 0.2% | 75% | >25 µg/mL | 2% | 0.02% | 74% | – | –

Continued, molecule first:

Molecule | FP^#c (Fold Potentiation, EC90) [1] | FP* (Fold Potentiation, EC50) [1] | FP^# (Fold Potentiation, EC90) [1] | FP*^c (Fold Potentiation, EC50) [1] | biofilm recovery, combination treatment [2, 8] | biofilm cells recovered, EPI alone [2] | biofilm recovery, combination treatment [2, 9] | percent recovery of Hek293T cells compared to solvent only controls [3] | TPI (inhibitory concentration of the polyamines alone to produce EC values) [1] | percent recovery, combination treatment [4, 10] | percent recovery, combination treatment [4, 9] | HepG2 cell viability / recovery [5] | change in DiSC3 fluorescence (membrane depolarization) [7] | further results
COC(=O)[C@H]1[C@H]2C[C@@H]3c4[nH]c5cc(OC)ccc5c4CCN3C[C@H]2C[C@@H](OC(=O)c2cc(OC)c(OC)c(OC)c2)[C@@H]1OC [Reserpine, reference compound] | 1 fold | – | – | – | – | – | – | – | – | – | – | – | – | –
NCCC[C@@H](CN[C@H](CN)Cc1ccccc1)NCCc1ccccc1 [TPI 314, (S)—N^1—((S)-1-amino-3-phenylpropan-2-yl)-N^2-phenethylpentane-1,2,5-triamine] | 7.5 fold | 5 fold | 7.5 fold | 5 fold and 5.0 fold | 1% | 99.99% | 0.6% | – | >25 µg/mL | 5.3% | 0.01% | 77% | – | –
O=C(N[C@H](CO)[C@H](O)c1ccc([N+](=O)[O-])cc1)C(Cl)Cl [chloramphenicol] | – | – | – | – | – | – | – | – | – | – | – | – | decreased in florescence | –
CN(C)[C@@H]1C(O)=C(C(N)=O)C(=O)[C@@]2(O)C(O)=C3C(=O)c4c(O)cccc4[C@@](C)(O)[C@H]3C[C@@H]12 [tetracycline, reference compound] | – | – | – | – | – | – | – | – | – | – | – | – | – | more biofilm eradication on increasing tetracycline by itself ([2]; from 12 μM to 25 μM): 4%; biofilm cells recovered, tetracycline alone ([2]; tetracycline 50 μM): 9%; EC50 ([1]; Pseudomonas aeruginosa, no EPI, average across all replicates, read-out: tetracycline alone EC50): 47.8 µM; EC90 ([1]; no library or EPI, average across all replicates, read-out: tetracycline alone EC90): 82.5 µM; less recovery on increasing tetracycline alone ([4]; from 12 μM to 25 μM): 17.8%; bacterial recovery, tetracycline alone ([4]; tetracycline 12 μM): 53%; bacterial recovery, tetracycline alone ([4]; tetracycline 25 μM): 35%; bacterial recovery, tetracycline alone ([4]; tetracycline 50 μM): 1%
nisin | – | – | – | – | – | – | – | – | – | – | – | – | strong increase in fluorescence | –
phenylalanine arginine beta naphthalamide [PAβN, reference compound] | 8 fold | – | – | 65.5 fold | 7% | – | 1% | 63% | – | 0.79% | 0.02% | 68% | strong increase in fluorescence | TPL (inhibitory concentration of the Torrey Pines Library alone to produce an EC90 value) [1]: >25 µg/mL; FP (Fold Potentiation, EC90) ([1]; EC90 tetracycline with no TPL/EC90 tetracycline with TPL, 25 μg mL−1 library): 8.01 fold; EPI*^a (inhibitory concentration of the individual Efflux Pump Inhibitor alone) ([1]; EPI alone, 50% effective concentration): >25 µg/mL; percent recovery, combination treatment [4, 8]: 0.2%; bacterial recovery (viability), EPI alone ([4]; 25 μg mL^−1, no tetracycline): 76%
